# Laboratory results as given in ChEMBL document CHEMBL2040815, “Sentulic acid: a cytotoxic ring A-seco triterpenoid from Sandoricum koetjape Merr” (Bioorg Med Chem Lett, 2012).
# Active and inactive are the calls of the source. The calls are words filed in the database; no cut-off is given here.
# Assays:
# [1] = system: HL-60; assay: Induction of apoptosis in human HL60 cells assessed as DNA fragmentation laddering at 100 uM by agarose gel electrophoresis; format: functional, cell-based
# [2] = system: HL-60; assay: Induction of apoptosis in human HL60 cells assessed as condensation of chromatin at 50 to 100 uM after 24 hrs by Hoechst 33342 staining; format: functional, cell-based
# [3] = system: HL-60; assay: Induction of apoptosis in human HL60 cells assessed as fragmentation of the nuclei at 50 to 100 uM after 24 hrs by Hoechst 33342 staining; format: functional, cell-based
# [4] = system: HL-60; assay: Cytotoxicity against human HL60 cells after 48 hrs by MTT assay; format: functional, cell-based; conditions: HL-60, 48 h
# [5] = system: HL-60; assay: Cytotoxicity against human HL60 cells assessed as decrease in cell viability after 24 to 72 hrs by trypan blue dye exclusion test; format: functional, cell-based
# [6] = system: HL-60; assay: Cytotoxicity against human HL60 cells assessed as inhibition of cell proliferation at 25 uM after 24 to 72 hrs by trypan blue dye exclusion test relative to control; format: functional
# [7] = system: HL-60; assay: Cytotoxicity against human HL60 cells assessed as inhibition of cell proliferation at 100 uM after 24 to 72 hrs by trypan blue dye exclusion test; format: functional, cell-based
SMILES,Activity [1],Activity [2],Activity [3],IC50 [4],Activity [5],inhibition at 25 µM [6],inhibition [7]
CC1(C)CC[C@]2(C)CC[C@]3(C(=O)O)C(=CC[C@@H]4[C@@]5(C)CCC(=O)C(C)(C)[C@@H]5CC[C@]43C)[C@@H]2C1,Active,Active,Active,27.4 µM,Dose-dependent effect,50%,Active
C=C(C)[C@@H]1CC[C@]2(C)[C@H](CC=C3[C@@H]4CC(C)(C)CC[C@]4(C)CC[C@]32C(=O)O)[C@@]1(C)CCC(=O)O [SENTULIC ACID],Active,Active,Active,37 µM,Dose-dependent effect,50%,Active
